Numbers after ± are expanded uncertainties.
Experiment: molar heat capacity at constant pressure
Conditions: Gas, Flow calorimetry

FC(F)C(F)(F)F [pentafluoroethane]
Conditions | molar heat capacity at constant pressure [J/K/mol]
303.15 K, 1500 kPa | 129.62 ± 4.8
307.15 K, 1500 kPa | 123.62 ± 1.7
311.15 K, 1500 kPa | 121.1 ± 3.6
313.15 K, 1500 kPa | 121.58 ± 2.4
314.15 K, 2000 kPa | 147.63 ± 6
315.15 K, 2000 kPa | 145.71 ± 3.6
316.15 K, 2000 kPa | 145.35 ± 3.6
317.15 K, 2000 kPa | 144.27 ± 3.6
318.15 K, 2000 kPa | 143.43 ± 6
319.15 K, 2000 kPa | 140.18 ± 3.6
319.15 K, 2200 kPa | 158.55 ± 3.6
320.15 K, 2000 kPa | 138.38 ± 6
320.15 K, 2200 kPa | 159.03 ± 3.6
321.15 K, 2000 kPa | 139.7 ± 4.8
321.15 K, 2200 kPa | 156.99 ± 2.4
322.15 K, 2000 kPa | 135.62 ± 3.6
323.15 K, 2200 kPa | 153.75 ± 6
323.15 K, 2400 kPa | 173.91 ± 7.2
324.15 K, 2400 kPa | 168.03 ± 5.3
325.15 K, 2400 kPa | 161.31 ± 4.8
326.15 K, 2400 kPa | 159.03 ± 7.2
327.15 K, 2400 kPa | 157.47 ± 7.2
343.15 K, 500 kPa | 103.22 ± 3.6
343.15 K, 650 kPa | 105.62 ± 3.6
343.15 K, 1000 kPa | 108.26 ± 2.4
343.15 K, 1500 kPa | 115.7 ± 2.4
343.15 K, 2000 kPa | 123.14 ± 2.3
343.15 K, 2200 kPa | 128.3 ± 2.4
343.15 K, 2400 kPa | 134.42 ± 2.3

Source: the NIST ThermoML archive (doi:10.1021/acs.jced.8b00310)
